From patent US11377442B2, “Small molecule agonists and antagonists of NR2F6 activity” (ZANDER THERAPEUTICS, INC., priority 2016, dated 2022)

Experiments:
pH stability = type: physicochemical
[1] = Stability in human plasma; type: in vitro ADME
Human PBMC = test: Cytokines release by hPBMC (PMA+ionomycin activated); type: cell-based
Description: FIGS. 18A and 18B show charts of cytokines release by hPBMC and cytotox for Compound 18. For cytokines release and cytotox on hPBMCs compound was tested at 1.25, 2.5, 5, 10, 25 and 50 uM in duplicates. For cytotox on HEK293, HEK293 pGL4 and HEK293 NR2F6 (full length) compound was tested from 50 uM with dilution step 3.16 in duplicates. Human PBMC were activated by 10 ng/mL PMA+500 ng/mL ionomycin. Data were normalized to controls with (100%) w/o compounds.
FIGS. 16A and 16B show results of cytokins release by hPBMC and cytotox for Compound C11. For cytokines release and cytotox on hPBMCs, the Compound was tested at 1.25, 2.5, 5, 10, 25 and 50 uM in duplicates. For cytotox on HEK293, HEK293 pGL4 and HEK293 NR2F6 (full length) cmpd was tested from 50 uM with dilution step 3.16 in duplicates.
The human PBMC were activated by 10 ng/mL PMA+500 ng/mL ionomycin. Data were normalized to controls with (100%) w/o compounds.
For cytokines release and cytotox on hPBMCs each compound was tested at 1.25, 2.5, 5, 10, 25 and 50 uM in duplicates. Human PBMC were activated by 10 ng/mL PMA+500 ng/mL ionomycin. Data were normalized to controls with (100%) w/o cmpds.
FIGS. 61A-61E show further results of cytokine release by hPBMC for Compound D136. Each compound was tested at 1.25, 2.5, 5, 10, 25 and 50 uM in duplicates.
Human PBMC were activated by 10 ng/mL PMA+500 ng/mL ionomycin. Data were normalized to controls with (100%) w/o cmpds.

PK in rat plasma = type: in vivo; settings: for Fabs, %: PO 7.53 mg/kg vs IV 1.13 mg/kg
[2] = Microsomal stability in mouse liver microsomes; type: in vitro ADME
[3] = Table 36, PO plasma, 7.53 mg/kg
[4] = Table 38, IV plasma, 1.13 mg/kg
[5] = rat, Table 36, PO plasma, 7.53 mg/kg
[6] = rat, Table 38, IV plasma, 1.13 mg/kg

SMILES: COCCN[C@H]1CS(=O)(=O)C[C@@H]1S(=O)(=O)c1ccc(Cl)cc1 [Compound D136]
- pH stability at pH2 (pH stability; pH2): extremely stable
- pH stability at pH7 (pH stability; pH7): extremely stable
- stability in human plasma [1]: Stable
- IL1b release activation by hPBMC (Human PBMC; at high release activation of others cytokines): No IL1b release activation
- IL-1 inhibition (Human PBMC; human PBMC): Selectively inhibits
- IL-17α inhibition (Human PBMC; human PBMC): Selectively inhibits
- TNF-α inhibition (Human PBMC; human PBMC): Selectively inhibits
- K el (PK in rat plasma; [3]): 0.75 h⁻¹
- T_½ (PK in rat plasma; [3]): 55.8 min
- AUV last (PK in rat plasma; Table 37, IV plasma, 1.13 mg/kg): 239
- AUV last (PK in rat plasma; Table 37, PO plasma, 7.53 mg/kg): 197
- Fabs, % (PK in rat plasma; Table 37, from AUCinf): 12.9%
- Fabs, % (PK in rat plasma; Table 37, from AUV last): 12.3%
- Cl/F (PK in rat plasma; [4]): 80.23 mL/min/kg
- K el (PK in rat plasma; [4]): 2.11 h⁻¹
- T_½ (PK in rat plasma; [4]): 19.8 min
- bioavailability (PK in rat plasma; plasma, po, PK in mouse and dog, species of the value not stated, read-out: orally bioavailable (absorbance)): ~33%
- AUC(0-inf) (PK in rat plasma; [5]): 208 ng·h/mL
- AUC(0-t) (PK in rat plasma; [5]): 197 ng·h/mL
- CL/F (PK in rat plasma; [5]): 866 mL/min/kg
- Cmax (PK in rat plasma; [5]): 165 ng/mL
- MRT inf (PK in rat plasma; [5]): 79.8 min
- MRT last (PK in rat plasma; [5]): 67.8 min
- Tmax (PK in rat plasma; [5]): 30 min
- Vd/F (PK in rat plasma; rat, Table 36, PO plasma, 7.53 mg/kg, read-out: Vz/F): 66.3 L/kg
- AUC(0-inf) (PK in rat plasma; rat, Table 37, IV plasma, 1.13 mg/kg): 242 ng·h/mL
- AUC(0-t) (PK in rat plasma; [6]): 239 ng·h/mL
- Cmax (PK in rat plasma; [6]): 524 ng/mL
- MRT inf (PK in rat plasma; [6]): 22.2 min
- MRT last (PK in rat plasma; [6]): 21 min
- Tmax (PK in rat plasma; [6]): 4.98 min
- stability in presence of mouse liver microsomes [2]: Extremely stable
